Tests used:
Experiment in all cases: DSF assay
Format in all cases: binding
Details in all cases: 20 µM compound
CSNK2A2A = target: T1, CSNK2A2A (Homo sapiens, UniProt P19784)
T1 construct: purchased in-house DSF panel (SGC-style construct names; the trailing A/B is a construct suffix)

MST4A = target: T2, MST4A (Homo sapiens, UniProt Q9P289)
T2 construct: purchased in-house DSF panel (SGC-style construct names; the trailing A/B is a construct suffix)
Description: (§1) Excitation and emission filters […]
(§2) curve. […] Measurements were
(§3) Kinobeads selectivity profiling of PROTACs
(§4) (Multiplexion, Heidelberg, Germany).
(§5) The cell lysate was ultracentrifuged and diluted
(§6) NaF, 1 mM DTT, protease inhibitors and phosphatase inhibitors to a final concentration of 5 mg/ml as determined by Bradford assay. For selectivity profiling of compounds the cell lysate (2.5 mg of total proteins per pulldown) was pre-incubated with increasing compound […]
(§7) µM) for 45 min at 4 °C in an end-over-end shaker. Subsequently, lysates were incubated with Kinobeads epsilon (17 µL settled beads) for 30 min at 4 °C. To assess the degree of protein depletion from the lysates by Kinobeads, the flow-through of the DMSO control was recovered

MAPK9A = target: T3, MAPK9A (Homo sapiens, UniProt P45984)
T3 construct: purchased in-house DSF panel (SGC-style construct names; the trailing A/B is a construct suffix)
Description: as §1, §2, §3, §4, §5, §6, §7

DAPK3A = target: T4, DAPK3A (Homo sapiens, UniProt O43293)
T4 construct: purchased in-house DSF panel (SGC-style construct names; the trailing A/B is a construct suffix)
Description: as §1, §2, §3, §4, §5, §6, §7

SLKA = target: T5, SLKA (Homo sapiens, UniProt Q9H2G2)
T5 construct: purchased in-house DSF panel (SGC-style construct names; the trailing A/B is a construct suffix)
Description: as §1, §2, §3, §4, §5, §6, §7

CAMK2DA = target: T6, CAMK2DA (Homo sapiens, UniProt Q13557)
T6 construct: purchased in-house DSF panel (SGC-style construct names; the trailing A/B is a construct suffix)
Description: as §1, §2, §3, §4, §5, §6, §7

BMP2KA = target: T7, BMP2KA (Homo sapiens, UniProt Q9NSY1)
T7 construct: purchased in-house DSF panel (SGC-style construct names; the trailing A/B is a construct suffix)
Description: as §1, §2, §3, §4, §5, §6, §7

BMPR2A = target: T8, BMPR2A (Homo sapiens, UniProt Q13873)
T8 construct: purchased in-house DSF panel (SGC-style construct names; the trailing A/B is a construct suffix)
T8 sequence (Q13873 27-1038): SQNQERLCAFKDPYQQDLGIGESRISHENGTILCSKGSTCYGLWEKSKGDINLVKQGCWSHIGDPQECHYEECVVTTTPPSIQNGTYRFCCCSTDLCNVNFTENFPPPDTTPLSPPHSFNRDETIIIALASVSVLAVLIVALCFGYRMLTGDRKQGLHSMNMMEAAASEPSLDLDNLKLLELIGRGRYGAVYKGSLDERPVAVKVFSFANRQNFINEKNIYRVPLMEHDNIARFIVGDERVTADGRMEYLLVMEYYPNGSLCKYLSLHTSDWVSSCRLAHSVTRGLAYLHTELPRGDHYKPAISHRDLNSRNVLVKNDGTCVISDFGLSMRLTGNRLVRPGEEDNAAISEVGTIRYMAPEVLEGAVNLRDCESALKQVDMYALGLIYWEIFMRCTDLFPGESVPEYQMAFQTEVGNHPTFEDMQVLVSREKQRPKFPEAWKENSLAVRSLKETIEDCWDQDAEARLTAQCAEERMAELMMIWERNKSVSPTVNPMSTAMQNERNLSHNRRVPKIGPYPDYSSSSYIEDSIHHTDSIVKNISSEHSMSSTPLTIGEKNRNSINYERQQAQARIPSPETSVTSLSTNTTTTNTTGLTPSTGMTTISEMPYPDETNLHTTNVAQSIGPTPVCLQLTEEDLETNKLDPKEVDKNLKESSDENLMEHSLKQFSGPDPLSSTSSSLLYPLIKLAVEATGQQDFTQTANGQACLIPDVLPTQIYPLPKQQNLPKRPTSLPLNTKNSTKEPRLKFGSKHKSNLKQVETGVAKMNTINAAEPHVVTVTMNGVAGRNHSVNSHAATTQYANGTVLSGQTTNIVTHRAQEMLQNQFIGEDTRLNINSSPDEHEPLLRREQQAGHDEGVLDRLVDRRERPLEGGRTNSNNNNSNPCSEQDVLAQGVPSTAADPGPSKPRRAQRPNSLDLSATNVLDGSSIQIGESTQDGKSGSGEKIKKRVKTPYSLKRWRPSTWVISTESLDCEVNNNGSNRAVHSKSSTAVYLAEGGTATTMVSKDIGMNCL
Description: as §1, §2, §3, §4, §5, §6, §7

STK38LA = target: T9, STK38LA (Homo sapiens, UniProt Q9Y2H1)
T9 construct: purchased in-house DSF panel (SGC-style construct names; the trailing A/B is a construct suffix)
Description: as §1, §2, §3, §4, §5, §6, §7

EPHA5A = target: T10, EPHA5A (Homo sapiens, UniProt P54756)
T10 construct: purchased in-house DSF panel (SGC-style construct names; the trailing A/B is a construct suffix)
T10 sequence (P54756 653-939): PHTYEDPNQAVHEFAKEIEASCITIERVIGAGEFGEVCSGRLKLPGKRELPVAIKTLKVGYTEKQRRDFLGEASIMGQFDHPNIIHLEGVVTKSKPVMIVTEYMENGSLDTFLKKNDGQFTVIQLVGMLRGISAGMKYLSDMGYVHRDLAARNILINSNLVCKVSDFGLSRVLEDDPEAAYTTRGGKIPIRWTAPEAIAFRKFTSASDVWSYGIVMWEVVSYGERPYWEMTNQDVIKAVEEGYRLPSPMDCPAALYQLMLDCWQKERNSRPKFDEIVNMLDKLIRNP
Description: as §1, §2, §3, §4, §5, §6, §7

ULK3A = target: T11, ULK3A (Homo sapiens, UniProt Q6PHR2)
T11 construct: purchased in-house DSF panel (SGC-style construct names; the trailing A/B is a construct suffix)
T11 sequence (Q6PHR2 1-277): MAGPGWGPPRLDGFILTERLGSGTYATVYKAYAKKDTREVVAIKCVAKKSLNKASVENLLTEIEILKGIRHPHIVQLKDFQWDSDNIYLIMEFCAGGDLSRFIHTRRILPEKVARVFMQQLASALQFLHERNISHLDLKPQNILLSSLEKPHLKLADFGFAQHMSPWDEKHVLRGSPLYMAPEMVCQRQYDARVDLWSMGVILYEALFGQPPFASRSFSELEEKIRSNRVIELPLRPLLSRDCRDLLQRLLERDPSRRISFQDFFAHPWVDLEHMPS

BRPF1A = test system: BRPF1A

T2 sequence (Q9P289 1-300): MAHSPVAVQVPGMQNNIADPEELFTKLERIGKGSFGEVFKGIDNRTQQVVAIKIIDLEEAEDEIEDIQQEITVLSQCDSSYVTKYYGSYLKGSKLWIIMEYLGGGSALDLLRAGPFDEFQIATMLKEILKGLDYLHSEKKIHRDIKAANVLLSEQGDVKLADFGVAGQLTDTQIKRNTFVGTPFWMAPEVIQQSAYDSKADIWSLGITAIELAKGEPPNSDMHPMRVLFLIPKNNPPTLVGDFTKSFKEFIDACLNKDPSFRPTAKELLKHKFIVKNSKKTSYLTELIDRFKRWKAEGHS
T9 sequence (Q9Y2H1 90-453): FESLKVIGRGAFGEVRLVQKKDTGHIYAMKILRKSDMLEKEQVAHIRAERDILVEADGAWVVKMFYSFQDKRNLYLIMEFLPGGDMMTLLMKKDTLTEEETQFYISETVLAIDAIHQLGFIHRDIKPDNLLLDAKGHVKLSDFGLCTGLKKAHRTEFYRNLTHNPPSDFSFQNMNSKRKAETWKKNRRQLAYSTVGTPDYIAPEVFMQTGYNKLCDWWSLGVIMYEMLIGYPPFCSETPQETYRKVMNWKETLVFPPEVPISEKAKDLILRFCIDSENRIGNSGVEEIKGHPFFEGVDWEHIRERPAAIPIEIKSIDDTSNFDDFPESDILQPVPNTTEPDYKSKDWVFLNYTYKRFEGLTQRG
T3 sequence (P45984 1-364): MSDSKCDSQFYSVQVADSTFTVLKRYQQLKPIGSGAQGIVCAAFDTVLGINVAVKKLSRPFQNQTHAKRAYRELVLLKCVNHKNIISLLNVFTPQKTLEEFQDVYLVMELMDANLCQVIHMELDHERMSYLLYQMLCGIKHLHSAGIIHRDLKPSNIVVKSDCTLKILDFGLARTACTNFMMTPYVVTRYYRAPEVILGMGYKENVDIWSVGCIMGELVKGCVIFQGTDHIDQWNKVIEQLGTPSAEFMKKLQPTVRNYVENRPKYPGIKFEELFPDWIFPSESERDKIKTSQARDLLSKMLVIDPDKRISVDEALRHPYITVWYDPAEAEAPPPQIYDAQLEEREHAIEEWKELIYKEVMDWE
T4 sequence (O43293 9-289): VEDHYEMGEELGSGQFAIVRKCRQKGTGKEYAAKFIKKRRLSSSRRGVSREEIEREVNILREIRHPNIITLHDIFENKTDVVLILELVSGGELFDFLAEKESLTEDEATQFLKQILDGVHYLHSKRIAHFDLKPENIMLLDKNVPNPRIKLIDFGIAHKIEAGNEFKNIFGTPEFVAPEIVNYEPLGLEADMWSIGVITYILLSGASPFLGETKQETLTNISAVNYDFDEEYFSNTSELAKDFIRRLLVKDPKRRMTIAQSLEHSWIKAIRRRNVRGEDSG
T1 sequence (P19784 whole entry): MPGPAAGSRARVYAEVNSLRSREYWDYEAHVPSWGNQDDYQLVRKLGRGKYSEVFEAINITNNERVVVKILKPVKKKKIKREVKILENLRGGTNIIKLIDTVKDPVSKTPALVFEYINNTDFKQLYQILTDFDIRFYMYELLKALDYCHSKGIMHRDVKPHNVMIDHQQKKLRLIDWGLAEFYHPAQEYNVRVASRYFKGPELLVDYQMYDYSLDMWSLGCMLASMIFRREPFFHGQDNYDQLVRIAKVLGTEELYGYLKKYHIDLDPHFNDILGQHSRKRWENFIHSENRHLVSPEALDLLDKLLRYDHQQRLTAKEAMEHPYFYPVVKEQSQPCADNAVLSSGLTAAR
T7 sequence (Q9NSY1 38-345): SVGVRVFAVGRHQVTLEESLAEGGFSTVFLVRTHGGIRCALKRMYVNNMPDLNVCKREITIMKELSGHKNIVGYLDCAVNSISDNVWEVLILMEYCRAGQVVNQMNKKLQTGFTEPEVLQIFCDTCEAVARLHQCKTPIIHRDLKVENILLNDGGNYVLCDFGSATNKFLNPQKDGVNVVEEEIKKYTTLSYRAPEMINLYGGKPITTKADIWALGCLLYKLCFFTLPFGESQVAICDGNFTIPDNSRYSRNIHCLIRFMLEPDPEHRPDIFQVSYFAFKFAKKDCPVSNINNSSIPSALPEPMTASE
T6 sequence (Q13557 11-309): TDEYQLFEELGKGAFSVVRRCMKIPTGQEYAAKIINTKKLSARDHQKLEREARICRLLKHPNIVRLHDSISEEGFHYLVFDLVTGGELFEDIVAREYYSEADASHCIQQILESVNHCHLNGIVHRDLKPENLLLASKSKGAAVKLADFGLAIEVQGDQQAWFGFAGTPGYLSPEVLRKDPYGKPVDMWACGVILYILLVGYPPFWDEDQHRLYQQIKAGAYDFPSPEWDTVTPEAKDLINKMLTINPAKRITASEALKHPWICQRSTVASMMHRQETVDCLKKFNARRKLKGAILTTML

SMILES: CCOC(=O)c1cc(Nc2cc(C3CC3)[nH]n2)nc(Nc2ccc(CC#N)cc2)n1 [compound 5]
- ΔTm at 20 µM (CSNK2A2A): 7.92 °C
- ΔTm at 20 µM (MST4A): 5.53 °C
- ΔTm at 20 µM (MAPK9A): 2.84 °C
- ΔTm at 20 µM (DAPK3A): 10.6 °C
- ΔTm at 20 µM (SLKA): 9.06 °C
- ΔTm at 20 µM (CAMK2DA): 3.37 °C
- ΔTm at 20 µM (BMP2KA): 18 °C
- ΔTm at 20 µM (BMPR2A): 7.28 °C
- ΔTm at 20 µM (STK38LA): 6.74 °C
- ΔTm at 20 µM (EPHA5A): 5.7 °C
- ΔTm at 20 µM (ULK3A): 15.4 °C
- ΔTm (BRPF1A): -0.64 °C

SMILES: CC(C)(C)OC(=O)NCCCOCCOCCOCCCNC(=O)c1cc(Nc2cc(C3CC3)[nH]n2)nc(Nc2ccc(CC#N)cc2)n1 [5-L]
- ΔTm at 20 µM (CSNK2A2A): 6.77 °C
- ΔTm at 20 µM (MST4A): 4.64 °C
- ΔTm at 20 µM (MAPK9A): 4.61 °C
- ΔTm at 20 µM (DAPK3A): 7.97 °C
- ΔTm at 20 µM (SLKA): 8.84 °C
- ΔTm at 20 µM (CAMK2DA): 3.75 °C
- ΔTm at 20 µM (BMP2KA): 17.7 °C
- ΔTm at 20 µM (BMPR2A): 7.29 °C
- ΔTm at 20 µM (STK38LA): 7.04 °C
- ΔTm at 20 µM (EPHA5A): 4.95 °C
- ΔTm at 20 µM (ULK3A): 13.3 °C
- ΔTm (BRPF1A): -0.68 °C

SMILES: CC(C)(C)OC(=O)NCCOCCOCCOCCOCCC(=O)N1CCN(c2cc(Nc3cc(C4CC4)[nH]n3)nc(Nc3ccc(CC#N)cc3)n2)CC1 [4-L]
- ΔTm at 20 µM (CSNK2A2A): 8.28 °C
- ΔTm at 20 µM (MST4A): 9.01 °C
- ΔTm at 20 µM (MAPK9A): 4.27 °C
- ΔTm at 20 µM (DAPK3A): 7.59 °C
- ΔTm at 20 µM (SLKA): 11.3 °C
- ΔTm at 20 µM (CAMK2DA): 2.15 °C
- ΔTm at 20 µM (BMP2KA): 21.5 °C
- ΔTm at 20 µM (BMPR2A): 9.02 °C
- ΔTm at 20 µM (STK38LA): 10.2 °C
- ΔTm at 20 µM (EPHA5A): 7.97 °C
- ΔTm at 20 µM (ULK3A): 18.5 °C
- ΔTm (BRPF1A): 1.15 °C

— PMC11851430, “Workflow for E3 Ligase Ligand Validation for PROTAC Development” (ACS Chemical Biology, 2025)
